Measured values as given in publication PMC10302582, “Unveiling the Potential of BenzylethyleneAryl–Urea Scaffolds for the Design of New Onco Immunomodulating Agents” (Pharmaceuticals, 2023).
Like-named read-outs stand apart in the source and are kept apart here.

How the values were obtained:
[1] = tested on: HT-29 (colon adenocarcinoma); assay: MTT cell proliferation assay, HT-29; assay type: cell-based; settings: Homo sapiens, read-out: IC50 HT-29
Experimental: After the supernatant was discarded, we solved the formazan crystal in 100 µL of DMSO. The absorbance was then registered at 550 nm using a plate lector. For all concentrations of any compound, cell viability was expressed as the percentage of the ratio between the mean absorbance of the treated cells and the mean absorbance of the untreated cells. Three to five experiments were performed to establish the IC50 values (i.e., concentration half inhibiting cell proliferation, we used GraphPad Prism 7 software).

[2] = tested on: HEK-293 (human embryonic kidney cells); assay: MTT cell proliferation assay, HEK-293; assay type: cell-based; settings: HEK293, 48 h treatment
Experimental: (§1) The action on cell proliferation caused by our developed compounds was studied using an MTT assay using the human tumor cell lines of HT-29 (colon adenocarcinoma) and A-549 (pulmonary adenocarcinoma), as well as toward the non-tumor cell line HEK-293 (human embryonic kidney cells), Jurkat T-cells and human microvessel endothelial cells (HMEC-1).
(§2) In general, 5 × 10^3 (HT-29, A549, HMEC-1, Jurkat and HEK-293) cells per well were seeded in 96-well plates with 1:1 dilutions of the compounds in a volume of 100 μL of the cell media. The 3-(4,5-dimethylthiazol-2-yl)-2,5-diphenyltetrazolium bromide (MTT; Sigma Chemical Co.) dye exclusion assay was performed, and after 48 h (37 °C, 5% CO2 in a humid atmosphere), 10 μL of MTT (5 mg/mL in phosphate-buffered saline, PBS) was added to each well and incubated for 3 h at 37 °C. After the supernatant was discarded, we solved the formazan crystal in 100 µL of DMSO. The absorbance was then registered at 550 nm using a plate lector. For all concentrations of any compound, cell viability was expressed as the percentage of the ratio between the mean absorbance of the treated cells and the mean absorbance of the untreated cells. Three to five experiments were performed to establish the IC50 values (i.e., concentration half inhibiting cell proliferation, we used GraphPad Prism 7 software).

[3] = tested on: human microvessel endothelial cells (HMEC-1); assay: MTT cell proliferation assay, HMEC-1; assay type: cell-based; settings: Homo sapiens
Experimental: as §1, §2

[4] = biological target: T1, VEGFR-2 (Homo sapiens, UniProt P35968); assay: VEGFR-2 relative quantification by flow cytometry in HT-29 cells; assay type: cell-based; settings: for total VEGFR-2 (%) expression: HT-29 cells, 24 h, relative to DMSO control = 100
T1 construct: assess the effect of our new ureas on these two proteins only on the HT-29 cancer cell line through the use of flow cytometry; endogenous in cells; host or cells: HT-29
T1 sequence (P35968 20-1356): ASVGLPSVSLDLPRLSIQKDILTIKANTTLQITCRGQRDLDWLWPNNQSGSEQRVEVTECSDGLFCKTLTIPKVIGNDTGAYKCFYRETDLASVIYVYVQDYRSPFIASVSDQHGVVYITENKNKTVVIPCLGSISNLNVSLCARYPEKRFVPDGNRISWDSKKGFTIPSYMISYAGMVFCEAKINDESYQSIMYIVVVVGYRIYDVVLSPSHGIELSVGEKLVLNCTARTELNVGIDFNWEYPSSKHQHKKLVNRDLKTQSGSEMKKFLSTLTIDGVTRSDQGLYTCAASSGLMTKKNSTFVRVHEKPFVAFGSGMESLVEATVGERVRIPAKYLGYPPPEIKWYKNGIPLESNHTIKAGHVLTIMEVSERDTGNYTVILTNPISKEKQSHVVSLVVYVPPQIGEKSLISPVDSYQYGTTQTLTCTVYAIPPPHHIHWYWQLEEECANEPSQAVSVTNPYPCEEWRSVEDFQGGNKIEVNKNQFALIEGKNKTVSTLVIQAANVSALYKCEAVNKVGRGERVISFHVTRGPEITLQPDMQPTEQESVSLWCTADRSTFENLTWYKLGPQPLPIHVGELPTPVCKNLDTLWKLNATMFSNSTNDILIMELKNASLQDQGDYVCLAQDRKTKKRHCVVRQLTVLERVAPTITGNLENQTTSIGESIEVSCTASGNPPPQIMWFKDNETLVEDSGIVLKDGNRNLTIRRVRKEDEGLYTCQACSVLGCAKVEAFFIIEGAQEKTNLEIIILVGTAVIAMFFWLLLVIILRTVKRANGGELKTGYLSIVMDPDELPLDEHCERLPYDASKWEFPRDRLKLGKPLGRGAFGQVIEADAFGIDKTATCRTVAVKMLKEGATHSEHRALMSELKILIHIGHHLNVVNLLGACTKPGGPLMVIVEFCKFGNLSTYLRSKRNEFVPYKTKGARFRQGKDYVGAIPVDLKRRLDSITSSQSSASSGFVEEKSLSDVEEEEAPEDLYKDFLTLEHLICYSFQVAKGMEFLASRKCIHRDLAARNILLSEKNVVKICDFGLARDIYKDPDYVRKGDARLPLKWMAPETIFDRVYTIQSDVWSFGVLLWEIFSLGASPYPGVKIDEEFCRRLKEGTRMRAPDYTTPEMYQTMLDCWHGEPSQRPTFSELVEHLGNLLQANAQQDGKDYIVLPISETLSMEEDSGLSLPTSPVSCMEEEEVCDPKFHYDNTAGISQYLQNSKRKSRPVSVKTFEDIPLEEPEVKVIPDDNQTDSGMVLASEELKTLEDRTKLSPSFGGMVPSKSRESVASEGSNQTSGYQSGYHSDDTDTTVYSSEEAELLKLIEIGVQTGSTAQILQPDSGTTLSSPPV
Experimental: The cells were incubated for a period of time of one day with doses of each of the selected compounds at two different doses: 20 and 100 µM concentrations.
The effects of the compounds on the target in the cancer cell lines compounds were tested using 20 and 100 µM doses. For that, 10^5 cells per well were seeded on a 12-well plate for 24 h with the corresponding dose of the tested compound in a total volume of 500 μL of cell media. To determine the total PD-L1 and VEGFR-2, the cells were collected and fixed with 4% in a PBS of formaldehyde. After this, a treatment with 0.5% in PBS Triton^TM X-100 permeabilized the membranes.
To determine surface PD-L1 and VEGFR-2, the assay used was similar to the above but avoided the permeabilization step (Triton^TM X-100).

[5] = tested on: HMEC-1 endothelial cells; assay: Microvessel formation inhibition assay on Matrigel; assay type: cell-based, human; settings: HMEC-1 on Matrigel
Experimental: The antiangiogenic action of the selected compounds, as well as the reference compounds, was evaluated by determining the effect on the formation of new microvessels formed by HMEC-1 endothelial cells on a Matrigel matrix.
We used IBIDI μ-slide angiogenesis plates (IBIDI, Martins ried, Germany). The wells were coated with 15 μL of Matrigel® (10 mg/mL, BD Biosciences, San Jose, CA, USA) at 4 °C and incubated at 37 °C for at least 30 min. Afterward, the HMEC-1 cells were seeded at 2 × 10^4 cells/well in 25 μL of medium and were left for 30 min at 37 °C while they attached. Then, the compounds were added in serial doses in 25 μL of the medium, and after several hours (maximum 24 h) of incubation at 37 °C, pictures for the wells were taken to evaluate the formation of microvessels.

[6] = tested on: THP-1 cells co-cultured with HT-29; assay: Immune cell proliferation in co-cultures of HT-29/THP-1; assay type: cell-based, human; settings: 100 μM
Experimental: We also determined the effect of the selected compounds on the human monocyte cells THP-1 in the described co-cultures (see Table 6).
To determine the action of the compounds on cancer cell proliferation in co-culture with immune cells, 10^5 or 2 × 10^5 of the HT-29 cells line were seeded in each well of 12-well plates and left at 37 °C for 24 h. Then, the cancer cells were treated with IFN-γ (10 ng/mL; human, Invitrogen®, Waltham, MA, USA) containing 5 × 10^5 or 10^5, respectively, of THP-1 cells per well and the corresponding compound at 100 μM or DMSO for the positive control. After 24 h/48 h of incubation, the supernatants were collected to establish the alive THP-1 cells using FSC and SCC flow cytometry. In addition, cancer cells were collected with trypsin, fixed with 4% in PBS paraformaldehyde and counted using flow cytometry.

[7] = tested on: CD80; assay: CD80 detection on membrane of co-cultured THP-1; assay type: cell-based, human; settings: 1:5 HT-29/THP-1; 24 h; relative to non-treated co-cultured THP-1
From the text: (§3) Reducing the expression of CD11b has become a promising target for immune modulation in anticancer therapies. For that reason, we decided to study the effect of our compounds on CD11b in THP-1 cells co-cultured with HT-29. We also determined the relative amount of CD80, a common surface marker for monocytes.
(§4) The results are related to non-treated THP-1 cells when they were co-cultured with HT-29.
(§5) The action of the compounds on CDs in co-cultured THP-1 immune cells with cancer cell line HT-29 was tested by treating them with the compounds for 24 h/48 h (see Section 4.2.5). Surface CD11b and CD80 was determined by collecting THP-1 with trypsin, fixing with formaldehyde and staining with FITC Mouse monoclonal Anti-Human CD80 (Sigma-Aldrich SAB4700142) and Alexa Fluor® 647 Rabbit monoclonal Anti-CD11b (Merck #MABF366, Rahway, NJ, USA).

[8] = tested on: CD11b; assay: CD11b detection on membrane of co-cultured THP-1; assay type: cell-based, human; settings: for % CD11b expression in membrane of THP-1: 1:5 HT-29/THP-1, 24 h, relative to non-treated co-cultured THP-1; for reduction of CD11b expression: THP-1 co-cultured with HT-29
From the text: as §3, §4, §5

Row | total VEGFR-2 (%) expression ([4]; 20 μM) [%] | total VEGFR-2 (%) expression ([4]; 100 μM) [%] | IC50 ([1]; HT-29, MTT, 48 h treatment) [µM] | inhibition rate of VEGFR-2 ([4]; HT-29, total VEGFR-2, dose not stated) | SMILES | IC50 ([1]; HT-29, 48 h) [µM] | IC50 [2] [µM] | IC50 ([3]; HMEC-1, 48 h treatment) [µM] | Minimum Active Conc. inhibiting microtube formation [5] [µM] | THP-1 cell proliferation in co-culture ([6]; 1:5 HT-29/THP-1, 24 h) | THP-1 cell proliferation in co-culture ([6]; 1:5 HT-29/THP-1, 48 h) | THP-1 cell proliferation in co-culture ([6]; 2:1 HT-29/THP-1, 24 h) | THP-1 cell proliferation in co-culture ([6]; 2:1 HT-29/THP-1, 48 h) | % CD80 expression in membrane of THP-1 [7] [%] | % CD11b expression in membrane of THP-1 [8] [%] | IC50 ([3]; HMEC-1, 48 h, 48 h treatment) [µM] | reduction of CD11b expression [8]
1 | 38 ± 7 | 40 ± 7 | > 100 | – | COc1ccc(CCCc2cccc(NC(=O)Nc3ccc(F)cc3)c2)cc1 [C.3] | – | > 100 | – | 50 | 87 ± 8 | 78 ± 5 | 113 ± 26 | 91 ± 18 | 93 ± 2 | 67 ± 22 | > 100 | about 35%
2 | 30 ± 10 | 65 ± 45 | > 100 | around 75% | COc1ccc(CCCc2cccc(NC(=O)Nc3ccc(OC)cc3)c2)cc1 [C.12] | – | > 100 | – | 20 | 95 ± 18 | 90 ± 6 | 94 ± 5 | 90 ± 2 | 89 ± 2 | 73 ± 4 | > 100 | –
3 | 228 ± 66 | 32 ± 9 | > 100 | – | COc1ccc(CCCc2cccc(NC(=O)Nc3ccccc3OC)c2)cc1 [C.14] | – | > 100 | – | >100 | 99 ± 10 | 91 ± 6 | 110 ± 7 | 86 ± 3 | 92 ± 1 | 66 ± 3 | > 100 | about 35%

Row | SMILES | total VEGFR-2 (%) expression ([4]; 20 μM) [%] | total VEGFR-2 (%) expression ([4]; 100 μM) [%] | IC50 ([1]; HT-29, MTT, 48 h treatment) [µM] | inhibition rate of VEGFR-2 ([4]; HT-29, total VEGFR-2, dose not stated) | IC50 ([1]; HT-29, 48 h) [µM] | IC50 [2] [µM] | IC50 ([3]; HMEC-1, 48 h treatment) [µM] | Minimum Active Conc. inhibiting microtube formation [5] [µM] | THP-1 cell proliferation in co-culture ([6]; 1:5 HT-29/THP-1, 24 h) | THP-1 cell proliferation in co-culture ([6]; 1:5 HT-29/THP-1, 48 h) | THP-1 cell proliferation in co-culture ([6]; 2:1 HT-29/THP-1, 24 h) | THP-1 cell proliferation in co-culture ([6]; 2:1 HT-29/THP-1, 48 h) | % CD80 expression in membrane of THP-1 [7] [%] | % CD11b expression in membrane of THP-1 [8] [%] | IC50 ([3]; HMEC-1, 48 h, 48 h treatment) [µM] | reduction of CD11b expression [8]
4 | COc1ccc(CCCc2cccc(NC(=O)Oc3ccccc3)c2)cc1 [C.1] | 51 ± 10 | 191 ± 87 | – | – | > 100 | > 100 | > 100 | 5 | 104 ± 8 | 97 ± 8 | 124 ± 6 | 113 ± 7 | 96 ± 1 | 79 ± 9 | – | –
